≈ marks a conversion by molar mass, not a printed value.
Tests used:
[1] = system: Mycobacterium tuberculosis; experiment: Antimycobacterial activity against Mycobacterium tuberculosis H37Rv; assay type: functional
[2] = system: Mycobacterium tuberculosis; experiment: Bactericidal activity against Mycobacterium tuberculosis H37Ra ATCC 25177 assessed as ratio of MBC to MIC; assay type: functional
[3] = system: Mycobacterium tuberculosis; experiment: Antimycobacterial activity against Mycobacterium tuberculosis H37Ra ATCC 25177 incubated for 7 days by microplate alamar blue assay; assay type: functional; conditions: H37Ra ATCC 25177, 168 h, time 7 day
[4] = Selectivity index, ratio of IC50 for African green monkey Vero cells to MIC for antitubercular activity against Mycobacterium tuberculosis H37Ra ATCC 25177; assay type: toxicity
[5] = system: Mycobacterium tuberculosis; experiment: Antimycobacterial activity against Mycobacterium tuberculosis H37Rv assessed as bacterial inhibition at 25 ug/ml by microplate alamar blue assay relative to control; assay type: functional
[6] = system: Mycobacterium tuberculosis; experiment: Antimycobacterial activity against Mycobacterium tuberculosis H37Rv ATCC27294 incubated for 7 days by microplate alamar blue assay; assay type: functional; conditions: H37Rv ATCC 27294, 168 h, time 7 day
[7] = system: Mycobacterium tuberculosis; experiment: Antimycobacterial activity against Mycobacterium tuberculosis H37Rv by Lowenstein-Jensen method relative to control; assay type: functional
[8] = system: Mycobacterium tuberculosis; experiment: Antimycobacterial activity against Mycobacterium tuberculosis H37Rv assessed as growth inhibition at 50 ug/ml by Lowenstein-Jensen method relative to control; assay type: functional; conditions: read-out: GI
[9] = system: Mycobacterium tuberculosis; experiment: Antimycobacterial activity against Mycobacterium tuberculosis H37Ra 7131 incubated for 21 days by broth dilution method; assay type: functional; conditions: H37Ra 7131, 504 h, time 21 day
[10] = system: Mycobacterium tuberculosis; experiment: Antimycobacterial activity against Mycobacterium tuberculosis H37Ra; assay type: functional
[11] = system: Mycobacterium tuberculosis; experiment: Antimycobacterial activity against Mycobacterium tuberculosis H37Rv incubated for 7 days by microplate alamar blue assay; assay type: functional; conditions: 168 h, time 7 day
[12] = system: Mycobacterium tuberculosis; experiment: Antimycobacterial activity against Mycobacterium tuberculosis H37Rv assessed as growth inhibition at 6.25 ug/ml by microplate alamar blue assay relative to control; assay type: functional; conditions: read-out: GI
[13] = system: Mycobacterium tuberculosis; experiment: Antimycobacterial activity against Mycobacterium tuberculosis H37Rv measured after 14 days by test tube dilution technique; assay type: functional; conditions: 336 h, time 14 day
[14] = system: Mycobacterium tuberculosis; experiment: Antimycobacterial activity against Mycobacterium tuberculosis H37Rv measured after 21 days by test tube dilution technique; assay type: functional; conditions: 504 h, time 21 day
[15] = system: Mycobacterium tuberculosis; experiment: Antimycobacterial activity against Mycobacterium tuberculosis H37Rv ATCC 27294 incubated for 5 days by microplate alamar blue assay; assay type: functional; conditions: H37Rv ATCC 27294, 120 h, time 5 day
[16] = system: Mycobacterium tuberculosis; experiment: Antimycobacterial activity against Mycobacterium tuberculosis H37Ra ATCC 25177 measured on 8th to 12th day by XTT reduction menadione assay; assay type: functional; conditions: time 8-12 day
[17] = system: Mycolicibacterium smegmatis; experiment: Antimycobacterial activity against Mycobacterium smegmatis ATCC 35797 incubated for 48 hrs by agar dilution method; assay type: functional

Molecule `COc1cc(-c2cc(-c3ccc(Cl)cc3)nc(NC(=O)NN3C(=O)CSC3c3ccccc3O)n2)cc(OC)c1OC` (configuration not stated) has an MIC [1] of 100 µg/mL (≈ 164 µM).

With `NC(=S)N/N=C/c1ccc(OC(=O)CC2SC(=O)NC2=O)cc1` (configuration not stated) the Ratio [2] was 2, the MIC [3] was 0.031 µg/mL (≈ 0.088 µM) and the selectivity ratio [4] was > 10.

Molecule `CCCCCCCCCCCCN1C(=O)C(CC(=O)O)SC12CCCCCC2` (configuration not stated) has an inhibition at 25 µg/mL [5] of 96%.

With `O=C(NN1C(=O)CSC1c1ccc(O)cc1)c1cc(O)c(O)c(O)c1` (configuration not stated) the MIC [6] was 0.79 µg/mL (≈ 2.18 µM).

For `NC(=S)N/N=C/c1ccc(OC(=O)CC2SC(=O)NC2=O)c(Cl)c1` (configuration not stated), the Ratio [2] was 2, the MIC [3] was 0.031 µg/mL (≈ 0.0801 µM) and the selectivity ratio [4] was > 10.

In the case of `O=C(NCCCNc1ncc([N+](=O)[O-])s1)N1C(=O)/C(=C/c2ccc(Br)cc2)SC1c1ccc(Br)cc1` (configuration not stated), the MIC [7] is reported as 2.75 µg/mL (≈ 4.21 µM).

Work on `O=C(NCCCN1c2ccccc2Sc2ccccc21)N1C(=O)/C(=C/c2ccc([N+](=O)[O-])cc2)SC1c1ccc([N+](=O)[O-])cc1` (configuration not stated) yielded an inhibition of growth at 50 µg/mL [8] of 82%.

In the case of `Cc1cccc(/N=C2\SC(=O)C(=O)N2NC(=O)c2ccncc2)c1`, the MIC [9] is reported as 19.5 µg/mL (≈ 57.3 µM).

`O=C1NC(=S)S/C1=C\c1c(O)ccc2ccccc12` gave an MIC [10] of 95 µg/mL (≈ 331 µM).

Molecule `O=C(NCCCNc1ncc([N+](=O)[O-])s1)N1C(=O)/C(=C/c2ccccc2Cl)SC1c1ccccc1Cl` (configuration not stated) has an MIC [7] of 2.5 µg/mL (≈ 4.43 µM).

`N=C1S/C(=C\c2ccccc2)C(=O)N1NC(=O)c1ccncc1` showed an MIC [9] of 12 µg/mL (≈ 37 µM).

With `O=C1CSC(c2ccc(O)cc2)N1c1nnc(S)s1` (configuration not stated) the MIC [11] was 12.5 µg/mL (≈ 40.1 µM).

In the case of `O=C(NN1C(=O)CSC1c1ccccc1Cl)c1cc(O)c(O)c(O)c1` (configuration not stated), the MIC [6] is reported as 0.79 µg/mL (≈ 2.07 µM).

`O=C1CSC(c2ccc(Cl)cc2)N1NC(=O)C(O)(c1ccccc1)c1ccccc1` (configuration not stated) gave an inhibition of growth at 6.25 µg/mL [12] of 99%.

With `CCCCN1C(=O)CS/C1=N/NC(=O)COc1cnccn1` the MIC [13] was > 100 µg/mL and the MIC [14] was > 100 µg/mL.

Work on `O=C(NN1C(=O)CSC1c1ccccc1)c1cc(O)c(O)c(O)c1` (configuration not stated) yielded an MIC [6] of 0.79 µg/mL (≈ 2.28 µM).

`O=C(NN1C(=O)CSC1c1ccccc1O)c1ccncc1` (configuration not stated) showed an MIC [15] of 0.62 µg/mL (≈ 1.97 µM).

`COc1ccc(/N=N/c2ccc(/C=C3\SC(=S)NC3=O)c(O)c2)cc1` showed an MIC [10] of 95 µg/mL (≈ 256 µM).

In the case of `COc1ccc(C2SCC(=O)N2c2nnc(S)s2)cc1OC` (configuration not stated), the MIC [11] is reported as 1.6 µg/mL (≈ 4.5 µM).

Work on `O=C1/C(=C/c2ccccc2Cl)SC(c2ccccc2Cl)N1NCCNc1ncc([N+](=O)[O-])s1` (configuration not stated) yielded an MIC [1] of 25 µg/mL (≈ 47.9 µM).

`Cc1ccc(/N=N/c2ccc(/C=C3\SC(=S)NC3=O)c(O)c2)cc1` showed an MIC [10] of 95 µg/mL (≈ 267 µM).

In the case of `CC/N=C1\SC(=O)C(=O)N1NC(=O)c1ccncc1`, the MIC [9] is reported as 19.5 µg/mL (≈ 70.1 µM).

`O=C(NCCCNc1ncc([N+](=O)[O-])s1)N1C(=O)/C(=C/c2cccc(Cl)c2)SC1c1cccc(Cl)c1` (configuration not stated) showed an MIC [7] of 2.75 µg/mL (≈ 4.87 µM).

In the case of `COc1ccc(C2SCC(=O)N2NC(=O)c2ccncc2)cc1` (configuration not stated), the MIC [15] is reported as 1.25 µg/mL (≈ 3.79 µM).

Molecule `O=C(NCCCNc1ncc([N+](=O)[O-])s1)N1C(=O)/C(=C/c2cccc(Br)c2)SC1c1cccc(Br)c1` (configuration not stated) has an MIC [7] of 2.75 µg/mL (≈ 4.21 µM).

With `COc1cc(/C=N/NC(N)=S)ccc1OC(=O)/C=C1\SC(=O)NC1=O` the Ratio [2] was 2, the MIC [3] was 0.031 µg/mL (≈ 0.0815 µM) and the selectivity ratio [4] was > 10.

`Cc1cc(NS(=O)(=O)c2ccc(N3C(=O)CSC3c3ccc(Cl)cc3)cc2)no1` (configuration not stated) showed an IC90 [16] of 0.43 µg/mL (≈ 0.956 µM).

Molecule `O=C(NN1C(=O)CSC1c1ccco1)c1ccncc1` (configuration not stated) has an MIC [15] of 1.25 µg/mL (≈ 4.32 µM).

With `COc1ccc(C2SCC(=O)N2c2n[nH]c(=S)s2)cc1` (configuration not stated) the MIC [11] was 6.25 µg/mL (≈ 19.2 µM).

For `CCCCCCCCCCCCN1C(=O)C(CC(=O)O)SC12CCCCCCCC2` (configuration not stated), the inhibition at 25 µg/mL [5] was 96%.

For `COc1ccc(C2SCC(=O)N2NC(=O)Nc2nc(-c3ccc(Cl)cc3)cc(-c3cc(OC)c(OC)c(OC)c3)n2)cc1` (configuration not stated), the MIC [1] was 100 µg/mL (≈ 161 µM).

In the case of `CCCCCCCC1SCC(=O)N1NC(=O)c1ccncc1` (configuration not stated), the MIC [17] is reported as > 25 µg/mL.

For `CC(C)N1C(=O)CS/C1=N/NC(=O)COc1cnccn1`, the MIC [13] was > 100 µg/mL and the MIC [14] was > 100 µg/mL.

For `Cc1ccccc1/N=N/c1ccc(/C=C2\SC(=S)NC2=O)c(O)c1`, the MIC [10] was 95 µg/mL (≈ 267 µM).

For `O=C(NN1C(=O)CSC1c1ccc([N+](=O)[O-])cc1)c1ccncc1` (configuration not stated), the MIC [15] was 3.12 µg/mL (≈ 9.06 µM).

For `CC1SC(c2ccc(C#N)cc2)N(NC(=O)C(O)(c2ccccc2)c2ccccc2)C1=O` (configuration not stated), the inhibition of growth at 6.25 µg/mL [12] was 99%.

Molecule `CCOC(=O)C(C(C)C)N1C(=O)C(C)SC1c1ccc2c(c1)c1ccccc1n2CC` (configuration not stated) has an MIC [10] of 25 µg/mL (≈ 57 µM).

With `N#Cc1ccc(C2SCC(=O)N2NC(=O)C(O)(c2ccccc2)c2ccccc2)cc1` (configuration not stated) the inhibition of growth at 6.25 µg/mL [12] was 98%.

Molecule `Cc1cc(NS(=O)(=O)c2ccc(N3C(=O)CSC3c3ccc(F)cc3)cc2)no1` (configuration not stated) has an IC90 [16] of 0.43 µg/mL (≈ 0.992 µM).

`COc1cc(-c2cc(-c3ccc(Cl)cc3)nc(NC(=O)NN3C(=O)CSC3c3ccccc3[N+](=O)[O-])n2)cc(OC)c1OC` (configuration not stated) gave an MIC [1] of 100 µg/mL (≈ 157 µM).

With `NC(=S)N/N=C/c1ccc(OC(=O)/C=C2\SC(=O)NC2=O)cc1` the Ratio [2] was 2, the MIC [3] was 0.031 µg/mL (≈ 0.0885 µM) and the selectivity ratio [4] was > 10.

With `Cc1cc(NS(=O)(=O)c2ccc(N3C(=O)CSC3c3ccc(C(F)(F)F)cc3)cc2)no1` (configuration not stated) the IC90 [16] was 0.43 µg/mL (≈ 0.889 µM).

Source: ChEMBL document CHEMBL4813957, “Antitubercular properties of thiazolidin-4-ones - A review” (Eur J Med Chem, 2021)
